Data as given in patent US20230144459A1, “SHEDDING BLOCKING AGENTS WITH INCREASED STABILITY” (BIOND BIOLOGICS LTD., priority 2020, published 2023).

Biological target: T1, human CD28 (shedding of sCD28 from cells) (Homo sapiens, UniProt P10747)
T1 construct: endogenous in cells; host or cells: CD4 T cells and PBMCs from fresh blood of healthy donors
Test: Inhibition of CD28 shedding in stimulated lymphocytes (CD4 with PHA and IL-2 or PBMCs with SEB)
Type: cell-based
Details: percent of soluble CD28 reduction from basal stimulation; constructs and isotype 3 μM, MMPi TMI-1 1 μM

T1 sequence (P10747 19-220): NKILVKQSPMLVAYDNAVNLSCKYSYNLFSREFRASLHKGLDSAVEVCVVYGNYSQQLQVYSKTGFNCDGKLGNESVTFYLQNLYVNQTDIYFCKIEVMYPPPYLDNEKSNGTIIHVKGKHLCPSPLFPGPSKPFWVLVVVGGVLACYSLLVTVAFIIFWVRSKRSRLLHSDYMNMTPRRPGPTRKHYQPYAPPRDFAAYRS

CC#CCOc1ccc(S(=O)(=O)N2CCSC(C)(C)[C@@H]2C(=O)NO)cc1 [MMPi, TMI-1, reference compound]
Inhibition (%) of CD28 shedding: 60.5%
